Experimental data reported in the supplement of paper PMC10307832.

Assays:
Assay in all cases: relative viability (nuclei count vs DMSO), 5 days (fraction); higher = more cells survive
[1] = compound: CC(C)C[C@H](NC(=O)[C@H](Cc1ccccc1)NC(=O)c1cnccn1)B(O)O [Bortezomib] + COc1cc2c(Oc3ccc(NC(=O)C4(C(=O)Nc5ccc(F)cc5)CC4)cc3F)ccnc2cc1OCCCN1CCOCC1 [Foretinib] (partner 0.25 µM)
Summary of the method: (§1)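 The day after seeding in 1536-well plates, lung cancer cell lines were treated by pin tool with a single drug, or with a fixed anchor-drug dose together with five library-drug doses (not always all listed) in √10 steps. After 5 days, a combined fix-and-stain solution (final 0.05% Triton X-100, 1% formaldehyde, 1 ug/ml Hoechst) was added. Nuclei counted on 4× images gave relative viability as treated counts over vehicle counts, reported as the median of duplicate plates.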

[2] = compound: COC1=CC(c2cc3ccccc3[nH]2)=N/C1=C\c1[nH]c(C)cc1C [Obatoclax] + CC(=O)Nc1cccc(-n2c(=O)n(C3CC3)c(=O)c3c(Nc4ccc(I)cc4F)n(C)c(=O)c(C)c32)c1 [Trametinib] (partner 0.02 µM)
Summary of the method: as §1

[3] = compound: CC1=CC(=NN1)NC2=CC(=NC(=N2)/C=C/C3=CC=CC=C3)N4CCN(CC4)C + CC(=O)Nc1cccc(-n2c(=O)n(C3CC3)c(=O)c3c(Nc4ccc(I)cc4F)n(C)c(=O)c(C)c32)c1 [Trametinib] (partner 0.02 µM)
Summary of the method: as §1

Row | Cell Line | relative viability ([1]; first compound 0.0002 µM) | relative viability ([1]; first compound 0.000632 µM) | relative viability ([1]; first compound 0.002 µM) | relative viability ([1]; first compound 0.006325 µM) | relative viability ([1]; first compound 0.02 µM) | relative viability ([2]; first compound 0.01 µM) | relative viability ([2]; first compound 0.03162 µM) | relative viability ([2]; first compound 0.1 µM) | relative viability ([2]; first compound 0.3162 µM) | relative viability ([2]; first compound 1 µM) | relative viability ([3]; first compound 0.08 µM) | relative viability ([3]; first compound 0.253 µM) | relative viability ([3]; first compound 0.8 µM) | relative viability ([3]; first compound 2.53 µM) | relative viability ([3]; first compound 8 µM)
1 | SW 1573 | 0.943 | 0.907 | 1.02 | 0.327 | 0.0926 | 0.669 | 0.606 | 0.346 | 0.144 | 0.152 | 0.542 | 0.636 | 0.521 | 0.12 | 0.0764
2 | NCI-H2228 | 0.957 | 0.962 | 0.595 | 0.0857 | 0.0911 | 0.573 | 0.454 | 0.576 | 0.473 | 0.474 | 0.518 | 0.22 | 0.637 | 0.106 | 0.0612
3 | NCI-H1650 | 1.19 | 1.15 | 0.223 | 0.16 | 0.164 | 0.763 | 0.724 | 0.652 | 0.36 | 0.303 | 0.547 | 0.566 | 0.651 | 0.197 | 0.0762
4 | NCI-H1944 | 0.791 | 0.818 | 0.87 | 0.724 | 0.199 | 0.407 | 0.391 | 0.428 | 0.392 | 0.398 | 0.433 | 0.429 | 0.37 | 0.318 | 0.239
5 | NCI-H1792 | – | – | – | – | – | 0.365 | 0.302 | 0.417 | 0.509 | 0.411 | 0.427 | 0.402 | 0.396 | 0.195 | 0.0298
6 | COR-L 105 | 0.997 | 1 | 0.995 | 0.262 | 0.255 | 0.44 | 0.434 | 0.493 | 0.4 | 0.373 | 0.427 | 0.453 | 0.416 | 0.276 | 0.27
7 | LU99A | 0.887 | 0.721 | 0.812 | 0.755 | 0.227 | 0.598 | 0.55 | – | 0.631 | 0.557 | 0.54 | 0.311 | 0.532 | 0.328 | 0.165
8 | H3255 | 0.763 | 0.994 | 0.935 | 0.638 | 0.283 | 0.561 | 0.629 | – | 0.631 | 0.615 | 0.636 | 0.45 | 0.665 | 0.608 | 0.271
9 | NCI-H1734 | 0.786 | 0.9 | 0.759 | 0.176 | 0.109 | 0.636 | 0.744 | 0.688 | 0.681 | 0.689 | 0.628 | 0.601 | 0.56 | 0.41 | 0.121
10 | NCI-H1915 | 1.05 | 1.12 | 1.1 | 0.112 | 0.0806 | 0.296 | 0.285 | 0.328 | 0.284 | 0.315 | 0.299 | 0.181 | 0.285 | 0.21 | 0.106
11 | Calu-6 | 0.803 | 0.856 | 0.839 | 0.0564 | 0.0507 | – | – | – | – | – | – | – | – | – | –
12 | NCI-H2009 | 1.14 | 1.21 | 1.23 | 0.237 | 0.0866 | 0.32 | 0.313 | 0.252 | 0.304 | 0.192 | 0.309 | 0.22 | 0.215 | 0.139 | 0.0702
13 | NCI-H1651 | 0.788 | 0.772 | 0.423 | 0.101 | 0.112 | 0.847 | 0.811 | 0.846 | 0.845 | 0.836 | 0.801 | 0.83 | 0.832 | 0.758 | 0.395
14 | HOP-62 | 0.972 | 1.07 | 0.863 | 0.134 | 0.0751 | 0.406 | 0.318 | 0.389 | 0.388 | 0.408 | 0.382 | 0.297 | 0.36 | 0.337 | 0.163
15 | CAL-12T | 1.18 | 1.07 | 1.08 | 0.743 | 0.154 | 0.337 | 0.431 | 0.47 | 0.246 | 0.14 | 0.362 | 0.292 | 0.259 | 0.102 | 0.104
16 | LCLC-103H | 0.679 | 0.698 | 0.268 | 0.162 | 0.13 | 0.64 | 0.702 | 0.63 | 0.678 | 0.694 | 0.667 | 0.641 | 0.677 | 0.651 | 0.528
17 | NCI-H3122 | 0.889 | 0.882 | 0.994 | 0.693 | 0.0999 | 0.251 | 0.215 | 0.241 | 0.205 | 0.212 | 0.201 | 0.167 | 0.293 | 0.334 | 0.257
18 | NCI-H1395 | 1.01 | 0.927 | 0.759 | 0.341 | 0.328 | 0.914 | 0.999 | 0.931 | 0.94 | 0.737 | 0.964 | 1.03 | 0.975 | 0.659 | 0.263
19 | PC-14 | 1.04 | 1.03 | 1.02 | 0.588 | 0.159 | 0.719 | 0.665 | 0.513 | 0.104 | 0.0647 | 0.85 | 0.805 | 0.835 | 0.0586 | 0.038
20 | NCI-H1299 | 1.09 | 1.06 | 1.17 | 0.416 | 0.121 | – | – | – | – | – | – | – | – | – | –
21 | NCI-H1703 | 0.324 | 0.342 | 0.211 | 0.153 | 0.176 | – | – | – | – | – | – | – | – | – | –
22 | NCI-H522 | – | – | – | – | – | 0.683 | 0.765 | 0.805 | 0.783 | 0.867 | 0.856 | 0.676 | 0.823 | 0.688 | 0.362
23 | NCI-H1623 | 0.831 | 0.992 | 0.803 | 0.473 | 0.344 | – | – | – | – | – | – | – | – | – | –
24 | ABC-1 | 0.917 | 0.874 | 0.284 | 0.229 | 0.204 | – | – | – | – | – | – | – | – | – | –
25 | IA-LM | 1.26 | 1.1 | 1.16 | 0.0393 | 0.0142 | – | – | – | – | – | – | – | – | – | –
26 | NCI-H1563 | 0.874 | 0.966 | 0.803 | 0.526 | 0.475 | – | – | – | – | – | – | – | – | – | –
27 | NCI-H1648 | – | – | – | – | – | 0.52 | 0.406 | 0.559 | 0.51 | 0.457 | 0.47 | 0.412 | 0.497 | 0.435 | 0.316
